Like-named read-outs stand apart in the source and are kept apart here.
What was measured:
[1] = system: NCI-H358 (lung cancer) cells; assay: Proliferation test method 1 (2D, MTT), NCI-H358; format: cell-based; settings: Homo sapiens, 5-7 days, read-out: IC50 proliferation inhibitory activity against NCI-H358
Procedure: (§1) Test method 1 (2D):NCI-H358 (lung cancer) and MiaPaca-2 cells (pancreatic cancer) cells (100 µL/well, 20,000 cells/mL) were inoculated in 96-well culture plates supplemented with 10% fetal bovine serum and 1% penicillin/streptomycin sulfate, respectively.Using 0.5% dimethyl sulfoxide as a blank control, cells were treated with a solution of the compound to be tested at a starting concentration of 10 µM, tripled diluted testing solution of the compound in eight gradients were used to treat cells, and then incubated in a 5% CO2 incubator for a certain period of time (5-7 days).At the end of incubation, 10 µL of MTT stock solution (5 mg/mL) was added to each well.The culture plates were incubated at 37° C. for 4 h and then the medium was removed.Dimethyl sulfoxide (100 µL) was added to each well and then shaken sufficiently. The absorbance of the product formazanwas measured at 570 nm on the Thermo Scientific Varioskan Flash multimode reader.IC50 values were obtained by fitting dose-response data into a three-parameter nonlinear regression model using GraphPad Prism 6.0 software.

[2] = Metabolic stability assay, mouse liver microsomes; format: in vitro ADME; settings: mouse liver microsomes 0.5 mg/mL, 1 µM compound, read-out: Liver microsomal stability (T½ /min) Mouse
Procedure: (§2) Metabolic stability assay: A warm incubation for metabolic stability was performed with a system of 150 µL of liver microsomes (final concentration 0.5 mg/mL) containing NADPH (final concentration 1 mM), 1 µM of the test compound and positive control midazolam or negative control atenolol, and the reaction was terminated with acetonitrile containing tinidazole at 0 min, 5 min, 10 min and 30 min, respectively. The reaction was vortexed for 10 min and centrifuged at 15000 rmp for 10 min, and 50 µL of supernatant was taken into the 96-well plate for sampling. The metabolic stability of the compound was calculated by measuring the relative reduction of the drugs.

[3] = biological target: T1, KRAS^G12C/SOS1 (Homo sapiens, UniProt P01116, G12C); assay: KRAS^G12C/SOS1 protein-protein interaction Binding assay (CisBio kit); settings: class symbols
T1 construct: purchased CisBio
Procedure: CisBio’s KRAS^G12C/SOS1 kit was used to test the efficacy of the compound on inhibiting the protein-protein interaction between SOS1 and KRAS^G12Cby Binding assay.Results were expressed as IC50values.
Test methods: (1) the test compound was tested at a concentration of 1000 nM. Diluted to 3-fold diluted compound of a 200-fold final concentration of 100% DMSO solution in a 384-well plate at 10 concentrations. 50 nL of 200-fold final concentration of compound was transferred to the destination plate 384 well plate using a dispenser Echo 550.50 nL of 100% DMSO was added to the negative control wells and positive control wells; (2) 4-fold final concentration of Tag1 SOS1 solution was prepared using Diluent buffer; (3) 2.5 µL of 4-fold final concentration of Tag1 SOS1 solution was added to the 384-well plate; (4) 4-fold final concentration of Tag2 KRAS^G12C solution was prepared using Diluent buffer; (5) 2.5 µL of 4-fold final concentration of Tag2 KRAS^G12C solution was added to compound wells and positive control wells, respectively; 2.5 µL of diluent buffer was added to negative control wells; (6) the 384-well plate was centrifuged at 1000 rpm for 30 seconds, shaken and mixed, and incubated at room temperature for 15 min; (7) 1-fold final concentration of Anti Tag1 TB3+ solution and 1-fold final concentration of Anti Tag2 XL665 solution were prepared with Detection buffer, and 5 µL of the mixture was added to each well after mixing the two solutions; (8) the 384-well plate was centrifuged at 1000 rpm for 30 seconds, shaken and mixed, and incubated at room temperature for 120 minutes; (9) the Envision enzyme marker was used to read
Em665/620; (10) data analysis, calculation formula; where Min signal is the mean value of negative control wells, Max signal is the mean value of positive control wells.The log value of concentration was used as the X-axis and the percentage inhibition as the Y-axis to fit the quantitative efficacy curve using the log(inhibitor) vs. response Variable slope of the quantitative efficacy curve of the analytical software GraphPad Prism 5 to derive the IC50 value of each compound on the enzyme activity.The fitting formula was: Y=Bottom+(Top Bottom)/(1+10^A((LogIC50X)^∗ HillSlope)).

[4] = system: phosphorylated ERK levels of NCI-H358; assay: ERK phosphorylation (western blot), H358; format: cell-based; settings: Homo sapiens, 3 h
Procedure: (§3) Test method 3 (ERK phosphorylation): Miapaca-2 or H358 cells were inoculated at certain concentrations in 96-well plates and incubated overnight at 37° C., 5% CO2 in a cell culture incubator, and serial dilutions of the test compound (5 concentrations, 3-fold dilution) were added to the plates the next day for 24 h (Miapaca-2) or 3 h (H358), then lysis solution containing protease and phosphatase inhibitor were added to lyse the cells to extract proteins and western blot method was used to detect the level of p-ERK.

[5] = system: MiaPaca-2 cells; assay: Proliferation test method 2 (3D, Cell Titer Glo 3D), MiaPaca-2; format: cell-based; settings: Homo sapiens, MIA PaCa-2, 96 h, read-out: IC50 cell proliferation inhibitory activity against MiaPaca-2
Procedure: (§4) Test method 2 (3D): The tumor cells in the logarithmic growth phase were diluted with culture solution to a certain concentration and inoculated on the 96-well plate on the ultra-low attachment surface, and the culture medium was 80 µL/well. Cells were incubated overnight at 37° C. in a humidity chamber. On the second day, a series of diluted test compounds (10 concentrations, 3 times dilution) were added to the plate, 20 µL/well, incubated in an incubator for 96h.The plates are removed and placed at room temperature and incubated with an equal volume of Cell Titer Glo®3D reagent for 1 h. The signal is detected by the En Vision™ plate reader. […] A four-parameter nonlinear regression curve was fitted to the percent inhibition for each concentration of the compound and the IC50 was calculated.

[6] = system: NCI-H358 cells; assay: Proliferation test method 2 (3D, Cell Titer Glo 3D), NCI-H358; format: cell-based; settings: Homo sapiens, NCI-H358, 96 h, read-out: IC50 cell proliferation inhibitory activity against NCI-H358
Procedure: as §4

[7] = Metabolic stability assay, rat liver microsomes; format: in vitro ADME; settings: rat liver microsomes 0.5 mg/mL, 1 µM compound, read-out: Liver microsomal stability (T½ /min) Rat
Procedure: as §2

[8] = Metabolic stability assay, monkey liver microsomes; format: in vitro ADME; settings: monkey liver microsomes 0.5 mg/mL, 1 µM compound, read-out: Liver microsomal stability (T½ /min) monkey
Procedure: as §2

[9] = system: phosphorylated ERK levels of MiaPaca-2; assay: ERK phosphorylation (western blot), MiaPaca-2; format: cell-based; settings: Homo sapiens, MIA PaCa-2, 24 h
Procedure: as §3

[10] = system: MiaPaca-2 cells (pancreatic cancer); assay: Proliferation test method 1 (2D, MTT), MiaPaca-2; format: cell-based; settings: 5-7 days, read-out: IC50/nM proliferation inhibitory activity on MiaPaca-2 cells
Procedure: as §1

[11] = Metabolic stability assay, human liver microsomes; format: in vitro ADME; settings: human liver microsomes 0.5 mg/mL, 1 µM compound, read-out: Liver microsomal stability (T½ /min) human
Procedure: as §2

T1 sequence (P01116 1-188 isoform P01116-2 G12C): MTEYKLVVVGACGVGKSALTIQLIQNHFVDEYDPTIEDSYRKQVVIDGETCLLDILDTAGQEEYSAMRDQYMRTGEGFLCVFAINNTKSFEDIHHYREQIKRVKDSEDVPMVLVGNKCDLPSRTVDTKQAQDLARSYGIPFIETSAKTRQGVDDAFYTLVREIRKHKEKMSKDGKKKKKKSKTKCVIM

In the case of `C=CC(=O)N1CCN(c2c(C#N)c(OCCN(C)C)nc3c(F)c(-c4ccc(F)c5sc(N)nc45)c(Cl)cc23)CC1` [Example 20, 4-(4-Acryloyl Piperazin-1-yl)-7-(2-Amino-7-Fluorobenzo [d] Thiazol-4-yl) -6-Chloro-2-(2-(Dimethylamino) Ethoxy)-8-Fluoroquinolin-3 -Cyano], the IC50 [1] is reported as < 100 nM, the half-life at 1 µM [2] is reported as > 30 min and the IC50 [3] is reported as < 50 nM. The IC50 [4] was < 500 nM, the IC50 [5] was < 200 nM and the IC50 [6] was < 200 nM. For the same molecule, the half-life at 1 µM [7] was > 30 min, the half-life at 1 µM [8] was > 30 min and the IC50 [9] was < 500 nM.

In the case of `C=CC(=O)N1CCN(c2c(C#N)cnc3c(F)c(-c4ccc(F)c5sc(N)nc45)c(Cl)cc23)[C@@H](C)C1` [Example 10, 4-((S)-4-Acryloyl-2-Methylpiperazin-1-yl)-7-(2-Amino-7-Fluorobenzo[d]Thiazol-4-yl)-6-Chloro-8-Fluoroquinolin-3-Cyano], the IC50 [1] is reported as < 100 nM, the IC50 [3] is reported as 50 to 200 nM and the IC50 [4] is reported as < 500 nM. For the same molecule, the IC50 [5] was < 200 nM, the IC50 ([10]; 2D) was 57.2 nM and the IC50 ([10]; Homo sapiens, MIA PaCa-2, 2D) was < 100 nM. For the same molecule, the IC50 [6] was < 200 nM and the IC50 [9] was < 500 nM.

With `C=CC(=O)N1CCN(c2nc(OC[C@@H]3CCCN3C)nc3c(F)c(-c4ccc(F)c5sc(N)nc45)c(Cl)cc23)CC1` [Example 1, 1-(4-(7-(2-Amino-7-Fluorobenzo [d] Thiazol-4-yl) -6-Chloro-8-Fluoro-2-(((S)-1-Methylpyrrolin-2-yl) Methoxy) Quinazolin-4-yl) Piperazin-1-Yl) Prop-2-En-1-One] the IC50 [1] was < 100 nM, the IC50 [3] was < 50 nM and the IC50 [4] was < 500 nM. The half-life at 1 µM [11] was > 30 min and the IC50 [9] was < 500 nM.

With `C=C(F)C(=O)N1CCN(c2c(C#N)c(OC[C@@H]3CCCN3C)nc3c(F)c(-c4ccc(F)c5sc(N)nc45)c(Cl)cc23)CC1` [Example 14] the half-life at 1 µM [2] was > 30 min, the IC50 [3] was 50 to 200 nM and the IC50 ([10]; Homo sapiens, MIA PaCa-2, 2D) was 0.9 nM. The half-life at 1 µM [11] was > 30 min and the half-life at 1 µM [8] was > 30 min.

For `C=CC(=O)N1CCN(c2nc(OC[C@@H]3CCCN3C)nc3c(F)c(-c4ccc(F)c5sc(N)nc45)c(Cl)cc23)[C@@H](C)C1` [Example 23, 1-((3S)-4-(7-(2-Amino-7-Fluorobenzo [d]thiazol-4-yl) -6-Chloro-8-Fluoro-2-(((S)-1-Methylpyrrolin-2-yl) Methoxy) Quinazolin-4-yl)-3-Methylpiperazin-1-yl) Prop-2-En-1-One], the IC50 [3] was < 50 nM, the IC50 ([10]; Homo sapiens, MIA PaCa-2, 2D) was 1.2 nM and the half-life at 1 µM [7] was > 30 min. The half-life at 1 µM [8] was > 30 min.

In the case of `C=CC(=O)N1CC2C(=O)N(C)c3cnc4c(F)c(-c5c(O)cccc5F)c(Cl)cc4c3N2CC1C` (single isomer, unassigned) [Comparative Compound 2-1, reference compound], the half-life at 1 µM [2] is reported as 47 min, the IC50 [3] is reported as 50 to 200 nM and the half-life at 1 µM [11] is reported as 54 min. It also gave a half-life at 1 µM [7] of 41 min and a half-life at 1 µM [8] of 42 min.
